We go through 13 molecules from patent publication US20130129667A1, “Attractant compounds for yellow jacket wasps” (priority 2007, published 2013).

Holding throughout (format): in vivo
Assay [1] has as its system Vespula germanica. The experiment in a line: Field trap catch of yellow jacket wasps with attractant. Here is the method: (§1) On the top inside of the bottle, 2 cm below the cap 17, a 10 ml 'micro' glass vial 19 was installed. In this small container, 0.1 ml of an attractive compound 20 was deposited. In the bottom of the 500 ml bottle, 200 ml of water with liquid household detergent 22 was placed. The traps 10 or containers with the attractant 20, were placed randomly in different species of trees, mostly 'thorns,' Acacia […] Tebo, […] Lo Orozco, and apple trees in Casablanca (Chile), each hung from a wire 24, at a height of about 11⁄2 m from the ground, with a separation between them of about 10 m. […] The traps 10 were placed in Catapilco in the […] farm the 19th of February 2007, in the geographical locations of 33° 37' 06'' S. and 71° 19' 14'' O, for the Campo Lindo farm in Casablanca in 33° 14' 23'' S. and 71° 17' 37'' O on the 20th of February 2007 and Lo Orozco in 33° 13'26'' S. and 71° 24' 04'' O the 9th of April 2007. […] In the extent it was necessary the containers were filled up with water and detergent.

In assay [2] the test system is Other insects. The experiment in a line: Field trap catch of other insects (selectivity). How it is done: as §1
For assay [3], the system named is Bees. Put plainly: Field trap catch of bees (selectivity). The note with it: Lo Orozco; 21 days; five containers per attractant. Here is the method: (§2) On the top inside of the bottle, 2 cm below the cap 17, a 10 ml 'micro' glass vial 19 was installed. In this small container, 0.1 ml of an attractive compound 20 was deposited. In the bottom of the 500 ml bottle, 200 ml of water with liquid household detergent 22 was placed. The traps 10 or containers with the attractant 20, were placed randomly in different species of trees, mostly 'thorns,' Acacia […] Tebo, […] Lo Orozco, and apple trees in Casablanca (Chile), each hung from a wire 24, at a height of about 11⁄2 m from the ground, with a separation between them of about 10 m. Two replications were used per each attractant in Catapilco, and five replications in Lo Orozco and Casablanca. The traps 10 were placed in Catapilco in the […] farm the 19th of February 2007, in the geographical locations of 33° 37' 06'' S. and 71° 19' 14'' O, for the Campo Lindo farm in Casablanca in 33° 14' 23'' S. and 71° 17' 37'' O on the 20th of February 2007 and Lo Orozco in 33° 13'26'' S. and 71° 24' 04'' O the 9th of April 2007. […] In the extent it was necessary the containers were filled up with water and detergent.

Assay [4] concerns Polistes. The experiment in a line: Field trap catch of Polistes (selectivity). To be noted: Lo Orozco; 21 days; five containers per attractant. Here is the method:
as §2

Where [5] appears, read: Campo Lindo farm, Casablanca, 18 days, two containers per attractant, 0.1 ml.
[6] abbreviates: Manantiales farm, Catapilco, 17 days, two containers per attractant, 0.1 ml.
Setting [7] is: Lo Orozco, 21 days, five containers per attractant.

For the molecule `CCCCCCCCCCCCO` [1-Dodecanol], the “Total number of V. germanica workers captured” value in assay [1] (setting [5]) turned out to be 102; in assay [1] (setting [6]) it was 0. The “Total number of other insects captured” value turned out to be 1 Sirfid in assay [2] (setting [5]) and 0 in assay [2] (setting [6]).
In the case of `CCCCCC(C)=O` [2-Heptanone], the “Total number of V. germanica workers captured” value in assay [1] (setting [5]) amounted to 92; in assay [1] (setting [6]) it was 69. For the same molecule, the “Total number of other insects captured” value in assay [2] (setting [5]) and in assay [2] (setting [6]) was 0 in each case.
As to `CCCCCCCC(C)=O` [2-Nonanone], the “Total number of V. germanica workers captured” value is given as 178 in assay [1] (setting [5]) and 0 in assay [1] (setting [6]). The “Total number of other insects captured” value in assay [2] (setting [5]) and in assay [2] (setting [6]) was 0 each time.
For the molecule `CCCCCCC(C)=O` [2-Octanone], the “Total number of Bees captured” value in assay [3] is 0. For the same molecule, in assay [4], the “Total number of Polistes captured” value amounted to 1. For the same molecule, the figures for the “Total number of V. germanica workers captured” value in assay [1] (setting [5]), in assay [1] (setting [7]) and in assay [1] (setting [6]) were 209, 2.673 and 416, respectively. Besides, the “Attraction compared with the standard mixture of acetic acid with isobutanol” value in assay [1] (Lo Orozco field tests) is “superior”. Moreover, the “Total number of other insects captured” value in assay [2] (setting [5]) came out at 1 Moth; in assay [2] (setting [7]) it was 0; in assay [2] (setting [6]) it was 0.
With `CCCCCC(=O)CC` [3-Octanone], the “Total number of Bees captured” value in assay [3] is recorded as 0. In addition, in assay [4], the “Total number of Polistes captured” value stood at 0. Also, the “Total number of V. germanica workers captured” value in assay [1] (setting [5]) was 218; in assay [1] (setting [7]), 892; in assay [1] (setting [6]), 356. The “Total number of other insects captured” value in assay [2] (setting [5]) and in assay [2] (setting [7]) was 0 throughout.
For `CCCCCCC=O` [Heptaldehyde], the “Total number of V. germanica workers captured” value in assay [1] (setting [5]) amounted to 129; in assay [1] (setting [6]) it was 9. In addition, the “Total number of other insects captured” value in assay [2] (setting [5]) and in assay [2] (setting [6]) was 0 throughout.
With `CCCCCCCCC=O` [Nonyl aldehyde], the “Total number of V. germanica workers captured” value stood at 97 in assay [1] (setting [5]) and 1 in assay [1] (setting [6]). The “Total number of other insects captured” value in assay [2] (setting [5]) stood at 0; in assay [2] (setting [6]), 3 Bees.
The matching figures for `CCCCCCCC=O` [Octyl aldehyde]: 101, 3, 0 and 0.
The matching figures for `CCCCC/C=C/C=C/C=O` [Trans,trans-2,4-decadienal]: 5, 84, 0 and 0.
With `CCCC/C=C/C=C/C=O` [Trans,trans-2,4-nonadienal], the “Total number of V. germanica workers captured” value in assay [1] (setting [5]) turned out to be 218; in assay [1] (setting [6]), 0. In addition, the “Total number of other insects captured” value in assay [2] (setting [5]) and in assay [2] (setting [6]) was 0 in each case.
On to `CCCC/C=C/C=O` [Trans-2-heptenal], for which, in assay [3], the “Total number of Bees captured” value is recorded as 0. For the same molecule, in assay [4], the “Total number of Polistes captured” value is on record as 0. Further, the “Total number of V. germanica workers captured” value in assay [1] (setting [5]) is 252; in assay [1] (setting [7]) it was 999; in assay [1] (setting [6]), 407. The “Total number of other insects captured” value in assay [2] (setting [5]), in assay [2] (setting [7]) and in assay [2] (setting [6]) was 0 in each case.
For `CCCCC/C=C/CO` [Trans-2-octen-1-ol], the “Total number of Bees captured” value in assay [3] was 2. In addition, the “Total number of Polistes captured” value in assay [4] amounted to 1. Moreover, the entries for the “Total number of V. germanica workers captured” value in assay [1] (setting [5]) and in assay [1] (setting [6]) were 297 and 474, respectively. Besides, the “Total number of other insects captured” value in assay [2] (setting [5]) amounted to 0; in assay [2] (setting [7]) it was 0; in assay [2] (setting [6]) it was 1 Bee.
For the molecule `CCCCC=O` [Valeraldehyde], the “Total number of V. germanica workers captured” value in assay [1] (setting [5]) is 84; in assay [1] (setting [6]), 24. Besides, the “Total number of other insects captured” value in assay [2] (setting [5]) and in assay [2] (setting [6]) was 0 each time.
